Assay results reported in ChEMBL document CHEMBL1157656, “Fragment-based deconstruction of Bcl-xL inhibitors” (J Med Chem, 2010).
Where a name gives a salt, the structure may show the parent alone.

Legend:
[1] = target: T1, Bcl-2-like protein 1 (Homo sapiens, UniProt Q07817); experiment: Inhibition of Bcl-xL expressed in Saccharomyces cerevisiae
[2] = target: T1, Bcl-2-like protein 1; experiment: Binding affinity to 6xHis-tagged human Bcl-xL
[3] = target: T1, Bcl-2-like protein 1; experiment: Inhibition of Bcl-xL

T1 sequence (Q07817 whole entry): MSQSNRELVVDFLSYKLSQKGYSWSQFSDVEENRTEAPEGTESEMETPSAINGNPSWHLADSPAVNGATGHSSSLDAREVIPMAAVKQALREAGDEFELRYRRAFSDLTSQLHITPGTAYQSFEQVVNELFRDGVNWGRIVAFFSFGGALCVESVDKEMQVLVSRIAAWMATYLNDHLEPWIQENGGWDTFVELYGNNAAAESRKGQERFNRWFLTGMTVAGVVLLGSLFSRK

Structure (SMILES): COC1=CC(c2cc3ccccc3[nH]2)=N/C1=C\c1[nH]c(C)cc1C [OBATOCLAX MESYLATE]
- IC50 [1]: 4.69 µM

Structure (SMILES): Oc1ccccc1-c1ccccc1 [2-PHENYLPHENOL]
- Kd [2]: 2700 µM

Structure (SMILES): Cc1cc2c(C(C)C)c(O)c(O)c(C=O)c2c(O)c1-c1c(C)cc2c(C(C)C)c(O)c(O)c(C=O)c2c1O [GOSSYPOL]
- IC50 [3]: 0.48 µM
